Measurements taken from US6355799B1, “Substituted benzene compounds, process for their preparation, and herbicidal and defoliant compositions containing them” (ISK Americas Incorporated, priority 1997, dated 2002).

Tests used:
Assay type in all cases: in vivo
[1] = test system: redroot pigweed (Amaranthus retroflexus, AMARE); assay: Pre-emerge test, greenhouse herbicide activity screening; conditions: pre-emerge; for Pre-emerge Herbicidal Activity AMARE (phytotoxicity rating, scale 0-100): rated 14 days after application, 0 = no damage, 100 = complete death; for Pre-emerge Herbicidal Activity AMARE: phytotoxicity rating 0-100 at 14 days after application
Outline: (§1)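 Sandy loam pots; pre-emerge: sown 1 d pre-spray, surface-watered after, then bottom-watered. Post-emerge: sown 8–21 d before, 2–3 leaf stage, + 0.25% v/v NIS, bottom-watered. Acetone, 187 l/ha track spray, 15–1000 g ai/ha. 0–100 injury score, day 14.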

[2] = test system: barnyardgrass (Echinochloa crus-galli, ECHCG); assay: as above; conditions: pre-emerge; for Pre-emerge Herbicidal Activity ECHCG (phytotoxicity rating, scale 0-100): rated 14 days after application, 0 = no damage, 100 = complete death; for Pre-emerge Herbicidal Activity ECHCG: phytotoxicity rating 0-100 at 14 days after application
Outline: as §1

[3] = test system: green foxtail (Setaria viridis, SETVI); assay: as above; conditions: pre-emerge; for Pre-emerge Herbicidal Activity SETVI (phytotoxicity rating, scale 0-100): rated 14 days after application, 0 = no damage, 100 = complete death; for Pre-emerge Herbicidal Activity SETVI: phytotoxicity rating 0-100 at 14 days after application
Outline: as §1

[4] = test system: ivyleaf morningglory (Ipomoea hederacea, IPOHE); assay: as above; conditions: pre-emerge; for Pre-emerge Herbicidal Activity IPOHE (phytotoxicity rating, scale 0-100): rated 14 days after application, 0 = no damage, 100 = complete death; for Pre-emerge Herbicidal Activity IPOHE: phytotoxicity rating 0-100 at 14 days after application
Outline: as §1

[5] = test system: johnsongrass (Sorghum halepense, SORHA); assay: as above; conditions: pre-emerge; for Pre-emerge Herbicidal Activity SORHA (phytotoxicity rating, scale 0-100): rated 14 days after application, 0 = no damage, 100 = complete death; for Pre-emerge Herbicidal Activity SORHA: phytotoxicity rating 0-100 at 14 days after application
Outline: as §1

[6] = test system: lambsquarters (Chenopodium album, CHEAL); assay: as above; conditions: pre-emerge; for Pre-emerge Herbicidal Activity CHEAL (phytotoxicity rating, scale 0-100): rated 14 days after application, 0 = no damage, 100 = complete death; for Pre-emerge Herbicidal Activity CHEAL: phytotoxicity rating 0-100 at 14 days after application
Outline: as §1

[7] = test system: large crabgrass (Digitaria sanguinalis, DIGSA); assay: as above; conditions: pre-emerge; for Pre-emerge Herbicidal Activity DIGSA (phytotoxicity rating, scale 0-100): rated 14 days after application, 0 = no damage, 100 = complete death; for Pre-emerge Herbicidal Activity DIGSA: phytotoxicity rating 0-100 at 14 days after application
Outline: as §1

[8] = test system: sicklepod (Cassia obtusifolia, CASOB); assay: as above; conditions: pre-emerge; for Pre-emerge Herbicidal Activity CASOB (phytotoxicity rating, scale 0-100): rated 14 days after application, 0 = no damage, 100 = complete death; for Pre-emerge Herbicidal Activity CASOB: phytotoxicity rating 0-100 at 14 days after application
Outline: as §1

[9] = test system: velvetleaf (Abutilon theophrasti, ABUTH); assay: as above; conditions: pre-emerge; for Pre-emerge Herbicidal Activity ABUTH (phytotoxicity rating, scale 0-100): rated 14 days after application, 0 = no damage, 100 = complete death; for Pre-emerge Herbicidal Activity ABUTH: phytotoxicity rating 0-100 at 14 days after application
Outline: as §1

[10] = test system: field corn (Zea mays L., var. Dekalb 535, CORN); assay: Pre-emerge test, crop safety; conditions: pre-emerge; for Pre-emerge crop damage CORN (phytotoxicity rating, scale 0-100): rated 14 days after application, 0 = no damage, 100 = complete death; for Pre-emerge Herbicidal Activity CORN: crop damage, phytotoxicity rating 0-100 at 14 days after application
Outline: (§2)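 Plants grown in 10 cm pots of sandy loam mix received acetone-dissolved compounds through a moving flat-fan nozzle. Doses ranged from 15 to 1000 g ai/ha. Pre-emerge pots were seeded one day earlier, post-emerge pots 8–21 days earlier. Fourteen days on, each pot was graded 0–100 for damage.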

[11] = test system: upland rice (Oryza sp., var. Tebonnet, RICE); assay: Pre-emerge test, crop safety; conditions: pre-emerge; for Pre-emerge crop damage RICE (phytotoxicity rating, scale 0-100): rated 14 days after application, 0 = no damage, 100 = complete death; for Pre-emerge Herbicidal Activity RICE: crop damage, phytotoxicity rating 0-100 at 14 days after application
Outline: as §2

[12] = test system: barnyardgrass (Echinochloa crus-galli, ECHCG); assay: Post-emerge test, greenhouse herbicide activity screening
Outline: (§3)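 Applied at 15–1000 g ai/ha from acetone in 187 l/ha spray volume. Post-emergence applications included 0.25% v/v non-ionic surfactant and reached plants sown 8–21 days before. Pre-emergence applications were incorporated by surface watering. Efficacy or crop damage was rated on a 0–100 scale after 14 days.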

[13] = test system: green foxtail (Setaria viridis, SETVI); assay: as above
Outline: as §3

[14] = test system: ivyleaf morningglory (Ipomoea hederacea, IPOHE); assay: as above
Outline: as §3

[15] = test system: johnsongrass (Sorghum halepense, SORHA); assay: as above
Outline: as §3

[16] = test system: lambsquarters (Chenopodium album, CHEAL); assay: as above
Outline: as §3

[17] = test system: large crabgrass (Digitaria sanguinalis, DIGSA); assay: as above
Outline: as §3

[18] = test system: redroot pigweed (Amaranthus retroflexus, AMARE); assay: as above
Outline: as §3

[19] = test system: sicklepod (Cassia obtusifolia, CASOB); assay: as above
Outline: as §3

[20] = test system: velvetleaf (Abutilon theophrasti, ABUTH); assay: as above
Outline: as §3

[21] = test system: field corn (Zea mays L., var. Dekalb 535, CORN); assay: Post-emerge test, crop safety; conditions: for Post-emerge Herbicidal Activity CORN (crop damage): phytotoxicity rating 0-100 (0 no damage, 100 complete death), 14 days after application; for Post-emerge Herbicidal Activity CORN: crop damage rating 0-100 at 14 days after application
Outline: as §1

[22] = test system: upland rice (Oryza sp., var. Tebonnet, RICE); assay: Post-emerge test, crop safety; conditions: for Post-emerge Herbicidal Activity RICE (crop damage): phytotoxicity rating 0-100 (0 no damage, 100 complete death), 14 days after application; for Post-emerge Herbicidal Activity RICE: crop damage rating 0-100 at 14 days after application
Outline: as §1

[23] = 63 g ai/ha, phytotoxicity rating 0-100 (0 no damage, 100 complete death), 14 days after application
[24] = 250 g ai/ha, phytotoxicity rating 0-100 (0 no damage, 100 complete death), 14 days after application
[25] = post-emerge, 63 g ai/ha, phytotoxicity rating 0-100 at 14 days after application
[26] = post-emerge, 250 g ai/ha, phytotoxicity rating 0-100 at 14 days after application

SMILES: Cc1c(Cl)cc(F)c(-n2c(=O)cc(C(F)(F)F)n(C)c2=O)c1N [Compound 1-37]
- Pre-emerge Herbicidal Activity AMARE (phytotoxicity rating, scale 0-100) ([1]; 63 g ai/ha): 100
- Pre-emerge Herbicidal Activity AMARE (phytotoxicity rating, scale 0-100) ([1]; 250 g ai/ha): 100
- Pre-emerge Herbicidal Activity ECHCG (phytotoxicity rating, scale 0-100) ([2]; 63 g ai/ha): 90
- Pre-emerge Herbicidal Activity ECHCG (phytotoxicity rating, scale 0-100) ([2]; 250 g ai/ha): 100
- Pre-emerge Herbicidal Activity SETVI (phytotoxicity rating, scale 0-100) ([3]; 63 g ai/ha): 100
- Pre-emerge Herbicidal Activity SETVI (phytotoxicity rating, scale 0-100) ([3]; 250 g ai/ha): 100
- Pre-emerge Herbicidal Activity IPOHE (phytotoxicity rating, scale 0-100) ([4]; 63 g ai/ha): 100
- Pre-emerge Herbicidal Activity IPOHE (phytotoxicity rating, scale 0-100) ([4]; 250 g ai/ha): 100
- Pre-emerge Herbicidal Activity SORHA (phytotoxicity rating, scale 0-100) ([5]; 63 g ai/ha): 90
- Pre-emerge Herbicidal Activity SORHA (phytotoxicity rating, scale 0-100) ([5]; 250 g ai/ha): 100
- Pre-emerge Herbicidal Activity CHEAL (phytotoxicity rating, scale 0-100) ([6]; 63 g ai/ha): 100
- Pre-emerge Herbicidal Activity CHEAL (phytotoxicity rating, scale 0-100) ([6]; 250 g ai/ha): 100
- Pre-emerge Herbicidal Activity DIGSA (phytotoxicity rating, scale 0-100) ([7]; 63 g ai/ha): 100
- Pre-emerge Herbicidal Activity DIGSA (phytotoxicity rating, scale 0-100) ([7]; 250 g ai/ha): 100
- Pre-emerge Herbicidal Activity CASOB (phytotoxicity rating, scale 0-100) ([8]; 63 g ai/ha): 80
- Pre-emerge Herbicidal Activity CASOB (phytotoxicity rating, scale 0-100) ([8]; 250 g ai/ha): 100
- Pre-emerge Herbicidal Activity ABUTH (phytotoxicity rating, scale 0-100) ([9]; 63 g ai/ha): 100
- Pre-emerge Herbicidal Activity ABUTH (phytotoxicity rating, scale 0-100) ([9]; 250 g ai/ha): 100
- Pre-emerge crop damage CORN (phytotoxicity rating, scale 0-100) ([10]; 63 g ai/ha): 15
- Pre-emerge crop damage CORN (phytotoxicity rating, scale 0-100) ([10]; 250 g ai/ha): 90
- Pre-emerge crop damage RICE (phytotoxicity rating, scale 0-100) ([11]; 63 g ai/ha): 60
- Pre-emerge crop damage RICE (phytotoxicity rating, scale 0-100) ([11]; 250 g ai/ha): 90
- Post-emerge Herbicidal Activity ECHCG [12, 23]: 30
- Post-emerge Herbicidal Activity ECHCG [12, 24]: 90
- Post-emerge Herbicidal Activity SETVI [13, 23]: 20
- Post-emerge Herbicidal Activity SETVI [13, 24]: 80
- Post-emerge Herbicidal Activity IPOHE [14, 23]: 100
- Post-emerge Herbicidal Activity IPOHE [14, 24]: 100
- Post-emerge Herbicidal Activity SORHA [15, 23]: 10
- Post-emerge Herbicidal Activity SORHA [15, 24]: 70
- Post-emerge Herbicidal Activity CHEAL [16, 23]: 95
- Post-emerge Herbicidal Activity CHEAL [16, 24]: 100
- Post-emerge Herbicidal Activity DIGSA [17, 23]: 10
- Post-emerge Herbicidal Activity DIGSA [17, 24]: 70
- Post-emerge Herbicidal Activity AMARE [18, 23]: 90
- Post-emerge Herbicidal Activity AMARE [18, 24]: 100
- Post-emerge Herbicidal Activity CASOB [19, 23]: 65
- Post-emerge Herbicidal Activity CASOB [19, 24]: 90
- Post-emerge Herbicidal Activity ABUTH [20, 23]: 100
- Post-emerge Herbicidal Activity ABUTH [20, 24]: 100
- Post-emerge Herbicidal Activity CORN (crop damage) ([21]; 63 g ai/ha): 10
- Post-emerge Herbicidal Activity CORN (crop damage) ([21]; 250 g ai/ha): 60
- Post-emerge Herbicidal Activity RICE (crop damage) ([22]; 63 g ai/ha): 25
- Post-emerge Herbicidal Activity RICE (crop damage) ([22]; 250 g ai/ha): 60

SMILES: C#CCOc1c(Cl)cc(F)c(N2C(=O)C3=C(CCCC3)C2=O)c1N [Compound 8-3, N-(2-amino-4-chloro-6-fluoro-3-propargyloxyphenyl)tetrahydrophthalimide]
- Pre-emerge Herbicidal Activity AMARE ([1]; rate 63 g ai/ha): 99
- Pre-emerge Herbicidal Activity AMARE ([1]; rate 250 g ai/ha): 100
- Pre-emerge Herbicidal Activity ECHCG ([2]; rate 63 g ai/ha): 0
- Pre-emerge Herbicidal Activity ECHCG ([2]; rate 250 g ai/ha): 10
- Pre-emerge Herbicidal Activity SETVI ([3]; rate 63 g ai/ha): 95
- Pre-emerge Herbicidal Activity SETVI ([3]; rate 250 g ai/ha): 98
- Pre-emerge Herbicidal Activity IPOHE ([4]; rate 63 g ai/ha): 30
- Pre-emerge Herbicidal Activity IPOHE ([4]; rate 250 g ai/ha): 10
- Pre-emerge Herbicidal Activity SORHA ([5]; rate 63 g ai/ha): 20
- Pre-emerge Herbicidal Activity SORHA ([5]; rate 250 g ai/ha): 30
- Pre-emerge Herbicidal Activity CHEAL ([6]; rate 63 g ai/ha): 99
- Pre-emerge Herbicidal Activity CHEAL ([6]; rate 250 g ai/ha): 100
- Pre-emerge Herbicidal Activity DIGSA ([7]; rate 63 g ai/ha): 30
- Pre-emerge Herbicidal Activity DIGSA ([7]; rate 250 g ai/ha): 60
- Pre-emerge Herbicidal Activity CASOB ([8]; rate 63 g ai/ha): 30
- Pre-emerge Herbicidal Activity CASOB ([8]; rate 250 g ai/ha): 50
- Pre-emerge Herbicidal Activity ABUTH ([9]; rate 63 g ai/ha): 98
- Pre-emerge Herbicidal Activity ABUTH ([9]; rate 250 g ai/ha): 100
- Pre-emerge Herbicidal Activity CORN ([10]; rate 63 g ai/ha): 10
- Pre-emerge Herbicidal Activity CORN ([10]; rate 250 g ai/ha): 0
- Pre-emerge Herbicidal Activity RICE ([11]; rate 63 g ai/ha): 0
- Pre-emerge Herbicidal Activity RICE ([11]; rate 250 g ai/ha): 0
- Post-emerge Herbicidal Activity ECHCG [12, 25]: 0
- Post-emerge Herbicidal Activity ECHCG [12, 26]: 0
- Post-emerge Herbicidal Activity SETVI [13, 25]: 0
- Post-emerge Herbicidal Activity SETVI [13, 26]: 70
- Post-emerge Herbicidal Activity IPOHE [14, 25]: 40
- Post-emerge Herbicidal Activity IPOHE [14, 26]: 60
- Post-emerge Herbicidal Activity SORHA [15, 25]: 0
- Post-emerge Herbicidal Activity SORHA [15, 26]: 20
- Post-emerge Herbicidal Activity CHEAL [16, 25]: 70
- Post-emerge Herbicidal Activity CHEAL [16, 26]: 90
- Post-emerge Herbicidal Activity DIGSA [17, 25]: 0
- Post-emerge Herbicidal Activity DIGSA [17, 26]: 0
- Post-emerge Herbicidal Activity AMARE [18, 25]: 90
- Post-emerge Herbicidal Activity AMARE [18, 26]: 100
- Post-emerge Herbicidal Activity CASOB [19, 25]: 0
- Post-emerge Herbicidal Activity CASOB [19, 26]: 50
- Post-emerge Herbicidal Activity ABUTH [20, 25]: 90
- Post-emerge Herbicidal Activity ABUTH [20, 26]: 100
- Post-emerge Herbicidal Activity CORN ([21]; 63 g ai/ha): 0
- Post-emerge Herbicidal Activity CORN ([21]; 250 g ai/ha): 0
- Post-emerge Herbicidal Activity RICE ([22]; 63 g ai/ha): 20
- Post-emerge Herbicidal Activity RICE ([22]; 250 g ai/ha): 80
